For the assay, the target named is Substance-P receptor (Homo sapiens, UniProt P25103). The experiment in a line: Compound was evaluated for the inhibition of binding of [3H]SP in human IM-9 cells. The assay is classed as cell-based.

SMILES strings stand for the structures.

What is called IC50 is the concentration at which inhibition is half-maximal.

Substance-P receptor, sequence (P25103 whole entry): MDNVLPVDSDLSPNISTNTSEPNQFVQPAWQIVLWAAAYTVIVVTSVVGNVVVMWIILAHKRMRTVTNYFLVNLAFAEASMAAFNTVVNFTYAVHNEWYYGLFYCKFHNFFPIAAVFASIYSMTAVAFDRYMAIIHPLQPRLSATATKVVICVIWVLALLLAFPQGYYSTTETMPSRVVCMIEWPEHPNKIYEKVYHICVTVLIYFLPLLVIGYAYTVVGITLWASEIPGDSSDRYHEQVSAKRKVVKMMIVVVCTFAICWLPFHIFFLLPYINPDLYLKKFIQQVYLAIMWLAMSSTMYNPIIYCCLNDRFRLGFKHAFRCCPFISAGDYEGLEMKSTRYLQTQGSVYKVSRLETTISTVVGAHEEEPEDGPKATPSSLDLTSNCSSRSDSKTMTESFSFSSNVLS

In the case of `COc1ccc(CN[C@H]2C3CCCN(CC3)[C@H]2C(c2ccccc2)c2ccccc2)c(OC)c1` (some centres undefined), the IC50 turned out to be 86.3 nM.
With `COc1ccccc1CN[C@H]1C2CCCN(CC2)[C@H]1C(c1ccccc1)c1ccccc1` (some centres undefined), the IC50 came to 34.3 nM. Against the preceding compound, the IC50 is about 2.5-fold lower.
With `COc1ccccc1CN[C@H]1C2CCCN(CC2)[C@H]1C(c1ccc(F)cc1)c1ccc(F)cc1` (some centres undefined), the IC50 worked out at 310 nM.
Turning to `Clc1ccccc1CN[C@H]1C2CCCN(CC2)[C@H]1C(c1ccccc1)c1ccccc1` (some centres undefined), the IC50 came to 560 nM.

The values above are taken from ChEMBL document CHEMBL1159169, “Nuclear variations of quinuclidine substance P antagonists: 2-diphenylmethyl-1-azabicyclo[3.2.2]nonan-3-amines” (Bioorg Med Chem Lett, 1993).
